Among the data in US20070270475A1, “4-Methoxy-Pyrrolidine-2-Carboxylic Acid Compounds and Derivatives Thereof as Hepatitis C Virus Inhibitors” (priority 2004, published 2007) are IC50 values, retold here.

The test system of the assay is 11-7 cell line (NS2-5B) HCV replicon. As to the kind of experiment: Replicon ELISA cell based assay, genotype 1b, 11-7 cell line (NS2-5B). Set-up: species or system HCV genotype 1b. The settings on record: Hepatitis C virus; 11-7 cell line (NS2-5B) used instead of the 5-15 cell line. The protocol: Replicon ELISA Cell Based Assay
100 μL of medium containing 10% FCS were added to each well of clear, flat-bottomed 96 well microplates, excepting wells in the top row. Test compound was diluted in assay medium to twice the final required starting concentration from a 40 mM stock solution in DMSO. 200 μL of the starting dilution were introduced into two wells each in the top row and doubling dilutions made down the plate by the sequential transfer of 100 μL aliquots with thorough mixing in the wells; the final 100 μL were discarded. The two bottom rows were not used for compound dilutions. […]
Following incubation, the assay medium was aspirated from the plates. […] The reaction was stopped by the addition of 25 μL per well of 2 M sulphuric acid and the plates were read at 490 nm on a Fluostar Optima spectrophotometer. […]
The absorbance values from all compound-free wells that had received both primary and secondary antibodies were averaged to obtain a positive control value. The mean absorbance value from the compound-free wells that had not received the primary antibody was used to provide the negative (background) control value. The readings from the duplicate wells at each compound concentration were averaged and, after the subtraction of the mean background from all values, were expressed as a percentage of the positive control signal. […]
For orientation: Replicon systems follow genome replication, usually without infectious particles.

pIC50: −log10 of the molar value.

The term pIC50 denotes −log10 of the IC50, conventionally taken in molar units. A high value points to a small IC50.

`COC[C@H]1C[C@@](CC(C)C)(C(=O)O)N(C(=O)c2ccc(C(C)(C)C)c(OC)c2)[C@H]1c1ncc(C)s1` (racemic) [Compound C, rel-(2S,4S,5R)-2-isobutyl-1-(3-methoxy-4-tert-butylbenzoyl)-4-methoxymethyl-5-(5-methyl-1,3-thiazol-2-yl)pyrrolidine-2-carboxylic acid, reference compound] showed a negative-log IC50 (pIC50) of 5.00 to 6.82.
